Laboratory results: patent publication US7741346B2, “Angiogenesis inhibitor” (Santen Pharmaceutical Co., Ltd., priority 2001, dated 2010)

How the values were obtained:
[1] = system: normal human umbilical vein endotherial cells (HUVEC); test: VEGF-induced HUVEC proliferation (in vitro angiogenesis inhibition test); assay type: cell-based; conditions: 10 μM test compound, 10 ng/ml VEGF, three days after adding VEGF, WST-8 absorbance at 450 nm; for Inhibitory rate (%) (cell growth inhibitory rate to the control): 10 µM; for inhibition at 10 µM: Homo sapiens, HUVEC, 72 h, read-out: Inhibitory rate (%) (cell growth inhibitory rate to the control)
Protocol: (1) Angiogenesis Inhibition Tests Using Human Endothelial Cells
The effects of the present compounds on the in vitro angiogenesis were evaluated by using vascular endothelial growth factor (VEGF)-induced normal human umbilical vein endotherial cells (HUVEC) proliferation system (Cancer Res., 59, 99-106 (1999)), wherein inhibitory effects of drugs on cell growth reactions induced by treating HUVEC with VEGF as an in vitro angiogenesis evaluation model.
The present compound was dissolved in DMSO and then diluted with a medium to prepare 40 μM test compound solution.
2×10^3 cells/well of HUVEC was seeded onto a type I collagen coated 96-well plate. After one day, 25 μl of the 40 μM test compound solution and a 0.8% DMSO solution as a control were added to each well (final concentration; 10 μM of the test compound and 0.2% of DMSO). One hour after adding the test compound, 25 μl of 40 ng/ml VEGF solution was added to each well(final concentration; 10 ng/ml of VEGF). Three days after adding VEGF, a WST-8 assay reagent (manufactured by Dojin Chemical Co., Ltd.) was added to each well in an amount of 10 μl, and absorbance at 450 nm was measured.
Calculating cell growth inhibitory rates (%) to the control, angiogenesis inhibitory rates of almost all of the test compounds were 80% or higher.

Row | melting point | Structure (SMILES) | Inhibitory rate (%) (cell growth inhibitory rate to the control) [1] | inhibition at 10 µM [1]
1 | 107.5 to 109 °C | O=C(NCCCc1ccncc1)N(CCC(F)(F)F)CCC12CC3CC(CC(C3)C1)C2 [Compound No. 1-24, 1-[2-(1-Adamantyl)ethyl]-3-[3-(4-pyridyl)propyl]-1-(3,3,3-trifluoropropyl)urea] |  | 82.1%
2 | 89.5 to 93.5 °C | CC=CCN(CCC12CC3CC(CC(C3)C1)C2)C(=O)NCCCc1ccncc1 [Compound No. 1-25, 1-[2-(1-Adamantyl)ethyl]-1-(2-butenyl)-3-[3-(4-pyridyl)propyl]urea] |  | 83.2%
3 |  | CCCN(CCCC12CC3CC(CC(C3)C1)C2)C(=O)NCCCc1ccncc1 [Compound No. 1-35, 1-[3-(1-Adamantyl)propyl]-1-propyl-3-[3-(4-pyridyl)propyl]urea] |  | 83.7%
4 |  | CCCCCN(CCC12CC3CC(CC(C3)C1)C2)C(=O)NCC(C)Cc1ccncc1 (stereo not shown) [Compound No. 1-100, 1-[2-(1-Adamantyl)ethyl]-3-[2-methyl-3-(4-pyridyl)propyl]-1-pentylurea] | 83.0% | 
5 |  | CC(CNC(=O)N(CCN(C)C(=O)OC(C)(C)C)CCC12CC3CC(CC(C3)C1)C2)Cc1ccncc1 (stereo not shown) [Compound No. 1-107] |  | 83.2%
6 |  | CCCCCN(CCC12CC3CC(CC(C3)C1)C2)C(=O)NC/C=C\c1ccncc1 [Compound No. 1-111, (Z)-1-[2-(1-Adamantyl)ethyl]-1-pentyl-3-[3-(4-pyridyl)-2-propenyl]urea] |  | 83.1%
7 | 90 to 118 °C | CCCCCN(CCC12CC3CC(CC(C3)C1)C2)C(=O)NC/C=C/c1ccncc1 [Compound No. 1-112, (E)-1-[2-(1-Adamantyl)ethyl]-1-pentyl-3-[3-(4-pyridyl)-2-propenyl]urea] |  | 83.2%
8 |  | CCCCCN(CCC1CCCCC1)C(=O)NCC(C)Cc1ccncc1 (stereo not shown) [Compound No. 1-118, 1-(2-Cyclohexylethyl)-3-[2-methyl-3-(4-pyridyl)propyl]-1-pentylurea] |  | 81.6%
9 | 128.5 to 129 °C | CCCCCN(CCC12CC3CC(CC(C3)C1)C2)C(=O)NC(C)CCc1ccncc1 (stereo not shown) [Compound No. 1-137, 1-[2-(1-Adamantyl)ethyl]-3-[1-methyl-3-(4-pyridyl)propyl]-1-pentylurea] |  | 83.3%
10 |  | CCCCCN(CCC12CC3CC(CC(C3)C1)C2)C(=O)CCCCc1ccncc1 [Compound No. 2-14, 5-(4-Pyridyl)valeric acid N-[2-(1-adamantyl)ethyl]-N-pentylamide] |  | 83.4%
11 |  | CCCCCN(CCC12CC3CC(CC(C3)C1)C2)C(=O)CCSCc1ccncc1 [Compound No. 2-15, 3-(4-Pyridylmethylthio)propionic acid N-[2-(1-adamantyl)ethyl]-N-pentylamide] |  | 83.3%
12 |  | CCCCCN(CCC12CC3CC(CC(C3)C1)C2)C(=O)CSCCc1ccncc1 [Compound No. 2-18, 2-[2-(4-Pyridyl)ethylthio]acetic acid N-[2-(1-adamantyl)ethyl]-N-pentylamide] |  | 82.2%
13 |  | CCCCCN(CCC12CC3CC(CC(C3)C1)C2)C(=O)CCCCCc1ccncc1 [Compound No. 2-20, 6-(4-Pyridyl)caproic acid N-[2-(1-adamantyl)ethyl]-N-pentylamide] |  | 82.5%

Row | Structure (SMILES) | melting point | Inhibitory rate (%) (cell growth inhibitory rate to the control) [1] | inhibition at 10 µM [1]
14 | CC(CNC(=O)N(CCN(C)C(=O)OC(C)(C)C)CCC12CC3CC(CC(C3)C1)C2)Cc1ccncc1 (single isomer, unassigned; (+)) [Compound No. 1-139, (+)-1-[2-(1-Adamantyl)ethyl]-1-[2-[N-(t-butoxycarbonyl)-N-methylamino]ethyl]-3-[2-methyl-3-(4-pyridyl)propyl]urea] | 122.7 to 123.7 °C | 83.1% | 
